PubChem BioAssay (NCI)
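Growth conditions: 96-well plates. Treatment: test compound, 48 hours, 5 concentrations. Analysis: linear interpolation between bracketing concentrations; unreached endpoints set to highest concentration. At the GI50, growth is halved. TGI: total growth inhibition.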

Experiments:
Test in all cases: inhibition of tumour cell growth, NCI panel, 48 h
IGROV1 ovarian = test system: IGROV1 ovarian
OVCAR-4 ovarian = test system: OVCAR-4 ovarian
M14 melanoma = test system: M14 melanoma
MDA-MB-435 = test system: MDA-MB-435
HOP-92 NSCLC = test system: HOP-92 NSCLC
HOP-62 NSCLC = test system: HOP-62 NSCLC
DU-145 prostate = test system: DU-145 prostate
HOP-18 NSCLC = test system: HOP-18 NSCLC
SF-539 CNS = test system: SF-539 CNS
RPMI-8226 leukemia = test system: RPMI-8226 leukemia
XF 498 CNS = test system: XF 498 CNS
SNB-75 CNS = test system: SNB-75 CNS
LXFL 529 NSCLC = test system: LXFL 529 NSCLC
M19-MEL melanoma = test system: M19-MEL melanoma
HCC-2998 colon = test system: HCC-2998 colon
DMS 273 small cell lung = test system: DMS 273 small cell lung

| Structure (SMILES) | TGI (IGROV1 ovarian) [µM] | TGI (OVCAR-4 ovarian) [µM] | TGI (M14 melanoma) [µM] | TGI (MDA-MB-435) [µM] | TGI (HOP-92 NSCLC) [µM] | TGI (HOP-62 NSCLC) [µM] | TGI (DU-145 prostate) [µM] | TGI (HOP-18 NSCLC) [µM] | TGI (SF-539 CNS) [µM] | TGI (RPMI-8226 leukemia) [µM] | TGI (XF 498 CNS) [µM] | TGI (SNB-75 CNS) [µM] | TGI (LXFL 529 NSCLC) [µM] | TGI (M19-MEL melanoma) [µM] | TGI (HCC-2998 colon) [µM] | TGI (DMS 273 small cell lung) [µM] | GI50 (SF-539 CNS) [µM] | GI50 (HCC-2998 colon) [µM] | GI50 (HOP-92 NSCLC) [µM] | GI50 (DU-145 prostate) [µM] |
| --- | --- | --- | --- | --- | --- | --- | --- | --- | --- | --- | --- | --- | --- | --- | --- | --- | --- | --- | --- | --- |
| c1ccc(SC(Sc2ccccc2)c2ccc3c(c2)OCO3)cc1 | > 100 | > 100 | > 100 | > 100 | > 100 | > 100 | > 100 | – | – | – | – | – | – | – | – | – | – | – | – | – |
| COc1cccc(C2C(C(=O)O)=C(CO)Oc3cc4c(cc32)OCO4)c1 (stereo unspecified) | > 100 | – | > 100 | – | > 100 | – | – | > 100 | > 100 | > 100 | 91.2 | > 100 | > 100 | > 100 | – | – | – | – | – | – |
| O=NNc1cnccn1 | > 1250 | > 1250 | > 1250 | > 1250 | > 1250 | 265 | > 1250 | > 1250 | > 1250 | > 1250 | – | > 1250 | – | > 1250 | > 1250 | > 1250 | – | – | – | – |
| O=C(O)c1cncc(C(=O)O)c1 | > 100 | > 100 | > 100 | > 100 | – | > 100 | > 100 | – | > 100 | > 100 | – | > 100 | – | – | – | – | – | – | – | – |
| O=C(O)/C=C/c1cnc[nH]1 | > 500 | > 500 | – | – | > 500 | > 500 | – | > 500 | > 500 | > 500 | > 500 | > 500 | – | > 500 | > 500 | > 500 | – | – | – | – |
| C=C(CN(C)C)C(=O)c1cc(C)ccc1C | 34.7 | 39.4 | 7.21 | 22.1 | 8.2 | 33.8 | 22 | 11.6 | 19.2 | 5.34 | 33 | 43.4 | 5.42 | 19.6 | 29.9 | 39.3 | – | – | – | – |
| O=C(N1CCC(CN=c2cc3n(-c4ccc(Cl)cc4)c4ccccc4nc-3cc2Nc2ccc(Cl)cc2)CC1)N1CC1 | – | – | – | – | 37 | – | 2.65 | – | 3.13 | – | – | – | – | – | 1.58 | – | 1.63 | 0.632 | 13.5 | 1.3 |
| COc1ccc2c(c1)O[C@H]1c3ccc(O)cc3OC[C@@H]21 | 71.6 | > 100 | 47.7 | – | – | > 100 | – | > 100 | 49.9 | 89 | 46.4 | 47.1 | 80.3 | 46 | 53 | > 100 | – | – | – | – |
| CCOC(=O)C1(C(=O)OCC)CSC1 | – | > 100 | > 100 | > 100 | > 100 | – | > 100 | – | – | – | – | > 100 | – | – | 0.853 | – | – | – | – | – |
| NC(CCCNc1cccc(O)c1)C(=O)O (stereo unspecified) | – | > 100 | > 100 | – | > 100 | > 100 | – | > 100 | – | > 100 | – | > 100 | > 100 | > 100 | – | > 100 | – | – | – | – |
| COc1ccc2c[n+](C)c3c4cc(OC)c(OC)cc4ccc3c2c1 | 22.1 | 26.4 | 32.1 | 28.4 | 35.3 | 27.7 | 37.4 | > 96.1 | 24.9 | 16.1 | 22.1 | 15.7 | 12 | 25.6 | 34.3 | 12.5 | – | – | – | – |
| COC(=O)C1=COC2OC3/C(=C\c4ccc(O)c(OC)c4)C(=O)OC34C=CC1C24 (stereo unspecified) | 40.3 | 34.4 | 14.7 | – | 44.6 | 39.5 | – | – | 31.2 | > 100 | 18.4 | 25.2 | 27.1 | 27.3 | 22.9 | 30 | – | – | – | – |
| CCOc1ccc(N=Nc2ccc3oc(=O)c(/C(C)=N\NC(=O)CC(=O)Nc4ccc(Cl)cc4)cc3c2)cc1 | 45.4 | 37.9 | – | – | 54.9 | 36.4 | – | – | 33.5 | 64.7 | 4.31 | – | 27 | > 100 | 35.2 | 37.3 | – | – | – | – |
